Assays:
[1] = In vivo biodistribution of radioactive Pt-species, excised tissues by gamma counting; parameters: species or system C57BL/6N mice; details: 11.2 MBq i.v.
Source text: (§1) The ^195mPt-BP and ^195mPt(NO3)2(en) complexes were reconstituted in sterile saline solution (0.9% NaCl) and administered intravenously in the tail vein of C57BL/6N mice (n = 5 per each platinum complex). All mice received an intravenous injection with a dose of 11.2 ± 0.4 MBq ^195mPt. Immediately after injection and 1, 3, and 7 days after injection, images were acquired with U-SPECT-II/CT(MILabs) as reported previously[54],[55]. Mice were scanned under general anesthesia (isoflurane/O2) for 15 to 60 minutes using the 1.0-mm diameter pinhole mouse high sensitivity collimator tube, followed by a CT scan (spatial resolution […], 65 kV, […]) for anatomical reference. Scans were reconstructed with MILabs reconstruction software using an ordered-subset expectation maximization algorithm, with a voxel size of 0.4 mm. SPECT/CT scans were analyzed and maximum intensity projections were created using the Inveon Research Workplace software (IRW, version 4.1). A 3D volume of interest was drawn using CT threshold to differentiate soft tissue from skeletal tissue and uptake was quantified as the percentage injected dose per gram (%ID/g), assuming a tissue density of 1 g/cm^3. The hot spot in the skeletal tissue region of interest (ROI) was chosen with the location of the edge of the ROI contour representing 75% of maximum intensity. The mice from ^195mPt(NO3)2(en) group were euthanized with CO2 after 3 days due to excessive loss of body weight, whereas mice from treated with ^195mPt-BP were sacrificed at the end of experiments. After euthanizing the animals, blood (approximately 600 mg per mouse), liver, spleen, kidneys, heart, lungs, and bones (femur, humerus, tibia, and spine) were harvested and analyzed with a gamma counter (1470 Wizard, Perkin Elmer).

[2] = micro-SPECT/CT quantification of 195mPt biodistribution; format: in vivo, C57BL/6N mice
Source text: as §1

[3] = Laser ablation ICP-MS imaging of Pt co-localization with calcium in mice tibia; format: in vivo; details: proximal tibia sections; for percentage of Pt co-localized with calcium: LA-ICP-MS
Description: The experimental procedure was carried out as reported previously. The mice tibias were incubated in neutral buffered formaldehyde for 36 h. Later, tibias were dehydrated in ascending grades of 70% to 100% ethanol and embedded in poly(methyl methacrylate) (pMMA) resin, freshly prepared by mixing 600 mL of methyl methacrylate monomer (Acros Organics BVBA, Geel, Belgium), 60 ml dibutyl phthalate (Merck KGaA, Darmstadt, Germany) and 1.25 g perkadox®16 (Aldrich, Netherlands). The polymerization was followed by cutting serial horizontal sections (perpendicular to the tibia sample) of 5 µm thickness within the trabecular region of interest using an RM2155 microtome with a TC 65 blade (Leica Microsystems GmbH, Wetzlar, Germany). Microscopic images were obtained using an inverted fluorescence/bright field microscope (BZ-9000, Keyence Deutschland GmbH, Neu-Isenburg, Germany). For image recording and processing, the software BZ-II Viewer and BZ-II Analyzer were used, respectively. To calculate the percentage of platinum co-localized with calcium, the background of the image and all pixels without hard bone tissue were excluded from the calculations. A pixel is considered to be background if its calcium intensity is below 15%. The platinum concentrations of the remaining pixels were then added up and divided by the sum of the entire platinum image to yield the percentage of platinum co-localized with calcium.

[4] = Body weight, behaviour and toxicity of mice after injection of radioactive Pt-species; format: in vivo, C57BL/6N mice; details: for body weight and behavioral changes: 11.2 ± 0.4 MBq 195mPt i.v., first 3 days p.i. for 195mPt(NO3)2(en)
Description: All in vivo work was conducted in accordance with ISO standards and the principles set forth by the Revised Dutch Act on Animal Experimentation. The in vivo experiments were approved by the institutional Animal Welfare Committee of the Radboud University Medical Center (Radboudumc), Nijmegen, the Netherlands. For both the experiment, 10 male C57Bl/6N mice (Charles River), with an average weight of ~25 g and an age of approximately 6–8 weeks were housed in filter-topped cages (5 mice per cage) under non-sterile standard conditions provided with standard animal food and water ad libitum. The mice were allowed to adapt to laboratory conditions for 1 week before experimental use. The humane end point were defined as follows, body weight gain of> 20% within 10 days, no water or food intake, weight loss of >15% within 1–2 days or> 20% of normal body weight of that animal, serious circulatory or respiratory problems, behavioural changes (hyperactivity, passive, auto-mutilation), and morbidities such as impaired mobility or lethargy.
as §1, with “The mice from ^195mPt(NO3)2(en) group were euthanized with CO2 after 3 days due to excessive loss of body weight, whereas mice from treated with ^195mPt-BP were sacrificed at the end of experiments.” left out

[5] = Whole-body 195mPt radioactivity in mice measured using an ionization chamber; format: in vivo; details: day 7
Source text: Figure S3. ^195mPt radioactivity in mice. Percentage of injected dose (%ID) of ^195mPt-BP and ^195mPt(NO3)2(en) in mice, measured using an ionization chamber. ** P < 0.01; ****P < 0.0001 as determined by two-way ANOVA with a Bonferroni (multiple comparisons) post-hoc test.

[6] = In vivo biodistribution of cold Pt-species, Pt quantified by ICP-MS; parameters: species or system C57Bl/6N mice; details: 24 h after i.v. injection, 2.5 mM Pt
Description: The Pt-BP and Pt(NO3)2(en) complexes were administered intravenously in the tail vein of C57BL/6N mice (n = 5 per each platinum complex). Sterile saline solution (0.9% NaCl) was used to dissolve platinum complexes. The concentration of injected Pt-BP or Pt(NO3)2(en) solutions was 2.5 mM platinum, calculated based on the maximum tolerated dose for cisplatin of 6 mg per kg body weight of the mice[37]. The mice were euthanized with CO2 24 h after injection, after which blood (approximately 600 mg per mouse), liver, spleen, kidneys, heart, lungs, and bones (femur, humerus, tibia, and spine) were harvested. Approximately half of the tissues were prepared for inductively coupled plasma-mass spectrometry (ICP-MS) analysis by digestion in 65% (v/v) nitric acid at 75 °C for approximately three days until the tissues were digested completely. Each tissue was cut into three samples and the samples were weighed prior to digestion in nitric acid. The digested solutions were diluted with up to 6 ml of Milli-Q water to obtain 2% (v/v) nitric acid in order to measure platinum concentrations by ICP-MS (X series I, Thermo Electron Corporation). The detection limit for determining platinum concentration with ICP-MS was 1 ppb. The standard solutions were prepared from 1000 mg·1^−1 platinum ICP standard Certipur (1.70341.0100, Merck) ranging from 1 ppb to 2500 ppb. The measured isotopes for platinum were ^194Pt, ^195Pt, ^196Pt, and ^198Pt. Furthermore, scandium (^45Sc) was added as an internal standard, which was prepared with 1000 mg·1^−1 scandium standard Certipur (1.19513.0100, Merck) to correct for matrix effects and long-term fluctuations of the measurement signal. The platinum concentrations in the various tissues were calculated relative to 1 mg of the specific tissue and represented as ng Pt/mgtissue. Three replicates of Pt-BP and Pt(NO3)2(en) solutions with volumes and platinum concentrations identical to the solutions injected to the mice (200 µl and 2.5 mM platinum, respectively) were also analyzed for their platinum content using ICP-MS as control. The percentage of injected dose (%ID) of Pt-BP and Pt(NO3)2(en) in each mouse tissue 24 h after injection was calculated by dividing the total amount of platinum per tissue through the total amount of platinum detected in the control solutions[52].

genomic DNA = assay: Pt-DNA adducts quantification using High Resolution ICP-MS; format: in vivo, C57Bl/6N mice; details: 24 h after i.v. injection
Source text: The remaining half of the tissues from all mice were dissected and weighed for DNA extraction. DNA was isolated using DNeasy Blood & Tissue Kit (Qiagen, USA) for soft tissue and ChargeSwitch® gDNA Plant Kit (Thermofisher, USA) for bone samples. The DNA was digested with DNase I Solution (Thermofisher, USA) and filtered using 0.2 µm acrodisc GHP before analysis for Pt content using high resolution-ICP-MS (Element2, Thermo Finnigan). The detection limit for determining the platinum concentration was 2 ng/l. The standard solutions were prepared from 1000 mg·1^−1 platinum ICP standard Certipur (1.70341.0100, Merck) ranging from 5 ppt to 10 ppb. The selected isotopes for platinum were ^194Pt and ^195Pt. Furthermore, thallium (Tl) was added as an internal standard and determined at a molecular mass of 205 Da, which was prepared using a 1000 mg·1^−1 thallium standard (CGTL-1, Inorganic Ventures) to correct for matrix effects and long-term fluctuations of the analytical signal. The Pt-DNA adduct concentration is represented as percentage of Pt involved in adduct formation to the total amount of Pt accumulated in the specific tissue.

zebrafish embryos = assay: Phenotypic assessment of drug-treated zebrafish embryos; format: in vivo, zebrafish (Danio rerio); details: Pt-BP 5-100 µM, cisplatin 30 µM
Description: The zebrafish (Danio rerio) strains were kept under standard conditions (28 °C in E3 buffer) until 48 hours post fertilization (hpf) as described previously. All animal experiments were conducted at larval stages before the point of independent feeding and were in agreement with the animal protection law (Tierschutzgesetz).
48 hpf wildtype embryos were separated into 6 groups (n = 20 embryos/group), i.e., control (untreated) and embryos treated with 5 µM, 10 µM, 50 µM, and 100 µM Pt-BP as well as 30 µM cisplatin. Both types of compounds were added externally to the medium and the embryos were incubated at 33 °C for the duration of the experiment. The embryos were assessed each day for phenotypic toxicity until 2 days post treatment (48 hpt) and imaged live in an Olympus MVX10 microscope.

[7] = parameters: method as in PMID 29037232; details: cited from earlier work
Ehrlich solid carcinoma = tested on: Ehrlich solid carcinoma; parameters: method as in doi:10.1007/s10967-015-4053-1; details: cited from earlier work

Structure (SMILES): NCCN.NCCN.O.O.O.O=S(=O)([O-])O.[NH3+]CC1(O)P2(=O)[O][195Pt][O]P1(=O)[O][195Pt][O]2 (stereo not drawn) [^195mPt-BP]
- uptake in femur ([1]; gamma counting after 7 days): 3.1 ± 0.37 %ID/g
- uptake in humerus ([1]; gamma counting after 7 days): 2.53 ± 0.33 %ID/g
- uptake in kidneys ([1]; gamma counting after 7 days): 0.43 ± 0.16 %ID/g
- uptake in soft tissues except kidneys ([1]; gamma counting after 7 days): < 0.11 %ID/g
- uptake in tibia ([1]; gamma counting after 7 days): 2.86 ± 0.46 %ID/g
- hard-to-soft tissue uptake ratio ([2]; 1 h, excluding bladder uptake): 3.3
- hard-to-soft tissue uptake ratio ([2]; 24 h): 6
- hard-to-soft tissue uptake ratio ([2]; 72 h): 6.7
- uptake in bone (hard tissue) ([2]; micro-SPECT/CT, 1 h p.i.): 1.8 ± 0.25 %I.D/g
- uptake in soft tissue ([2]; micro-SPECT/CT, 1 h p.i.): 0.93 ± 0.27 %I.D/g
- uptake in soft tissue ([2]; micro-SPECT/CT, 24 h): 0.18 ± 0.03 %I.D/g
- uptake in hot spots in bone (ROI 75% of maximum intensity) compared to 195mPt(NO3)2(en) ([2]; micro-SPECT/CT, all time points): twofold increased uptake
- uptake in bone (hard tissue) ([2]; micro-SPECT/CT, from 24 h until day 7): 1.0 ± 0.12 %I.D/g
- Pt not co-localized with Ca (Pt in soft tissue of the proximal tibia) ([3]; Fig. 4C): 20%
- accumulation of Pt in bone compared to 195mPt(NO3)2(en) ([3]; Fig. 4C): almost a fourfold increased accumulation
- percentage of Pt co-localized with calcium [3]: 73.5%
- body weight and behavioral changes [4]: no behavioral or body changes were observed
- Pt-based toxicity ([4]; over a period of 7 days): did not observe any Pt-based toxicity
- whole-body radioactivity [5]: 2 %ID

Structure (SMILES): NCCN.O=[N+]([O-])[O-].O=[N+]([O-])[O-].[Pt+2] [Pt(NO3)2(en), reference compound]
- Pt uptake in hard tissue [6]: 2.69 ± 0.26 %ID/g
- Pt uptake in kidney [6]: 3.38 ± 0.28 %ID/g
- Pt uptake in liver [6]: 1.54 ± 0.33 %ID/g
- Pt uptake in spleen [6]: 0.38 ± 0.04 %ID/g
- Pt accumulation in hard tissue (bone) ([6]; normalized for tissue weight): ~ 1 ng Pt/mg tissue
- Pt-DNA adduct formation relative to total Pt uptake, kidney (genomic DNA): 4.8%
- Pt-DNA adduct formation relative to total Pt uptake, spleen (genomic DNA): 9.8%

Structure (SMILES): N.N.[Cl][Pt][Cl] [cisplatin]
- visual inspection of kidneys based on size and shape (zebrafish embryos): apparent shrinkage
- rapid weight loss followed by recovery within a week ([7]; mice at maximum tolerated dose): ~ 10%
- maximum tolerated dose ([7]; mice): 6 mg/kg

Structure (SMILES): N.N.[Cl][Pt][Cl] [^195mPt-cisplatin]
- inhibition of tumor growth, more effective compared to non-radioactive cisplatin (Ehrlich solid carcinoma): 30%

Structure (SMILES): NCCN.O=[N+]([O-])[O-].O=[N+]([O-])[O-].[195Pt+2] [^195mPt(NO3)2(en), reference compound]
- uptake in bones (femur, tibia, humerus) ([1]; gamma counting after 3 days): 1.4 ± 0.15 %ID/g
- uptake in kidneys ([1]; gamma counting after 3 days): 3.95 ± 0.24 %ID/g
- uptake in liver ([1]; gamma counting after 3 days): 3.22 ± 0.28 %ID/g
- uptake in lungs ([1]; gamma counting after 3 days): 1.08 ± 0.16 %ID/g
- uptake in spleen ([1]; gamma counting after 3 days): 2.76 ± 0.67 %ID/g
- hard-to-soft tissue uptake ratio ([2]; 1 h, excluding bladder uptake): 1
- hard-to-soft tissue uptake ratio ([2]; 24 h): 1.2
- hard-to-soft tissue uptake ratio ([2]; 72 h): 1.2
- uptake in bone (hard tissue) ([2]; micro-SPECT/CT, 1 h p.i.): 1.5 ± 0.1 %I.D/g
- uptake in soft tissue ([2]; micro-SPECT/CT, 1 h p.i.): 1.43 ± 0.21 %I.D/g
- Pt not co-localized with Ca (Pt in soft tissue of the proximal tibia) ([3]; Fig. 4C): 10%
- percentage of Pt co-localized with calcium [3]: 37.3%
- co-localization of Pt with Ca relative to that of 195mPt-BP ([3]; total amount of Pt, Fig. 4C): 27%
- body weight and behavioral changes [4]: significant body weight loss
- weight loss ([4]; humane end point, euthanized after 3 days): more than 20%
